Reference: patent publication US10197557B2, “Small molecules for endothelial cell activation” (The Regents of the University of California, priority 2011, dated 2019)

Tested on: Primary human umbilical endothelial cells (EC)
Assay: Biological platform: EC-monocyte co-culture, flow cytometry profiling (CD40, CD209, CD163) across 10 parameters
Type: cell-based
Conditions: Prestwick library of FDA approved compounds (FIG. 1B)
Procedure: The biological platform or assay described herein can be embodied in different ways (see, e.g., FIGS. 1 and 9). An embodiment of the biological platform of invention is provided below: • 1. Primary human umbilical endothelial cells (EC) are adhered in 96 or 384-well plates at confluency for 2 hours. • 2. Control stimuli (or compounds of interest) are added to EC for 5 hours. • 3. Compounds are removed, EC washed, and primary human peripheral blood monocytes are added. • 4. After 24 hours, 25 μl of supernatant is removed for MIP1α and MIP1β analysis. • 5. After 42-48 total hours of co-culture, cells are harvested for flow cytometry. • 6. Cells are labeled with: CD40, CD209, and CD163. • a. Parameter 1: Gate on EC/monocytes by using FSC vs SSC on whole co-culture population • b. Parameter 2: Use SSC vs. CD40 to separate monocytes from EC. Note: loss of EC population reflects compound toxicity. • c. Parameter 3: Gate on CD40+ monocytes • d. Parameter 4: Determine CD40 MFI on CD40+ macrophages • e. Parameter 5: Determine CD209 MFI on CD40+ macrophages • f. Parameter 6: Determine CD163 MFI on CD40+ macrophages • g. Parameter 7: Subtract vehicle control MFIs from each sample of interest. In the example below (FIGS. 2A and 2B), EC stimulation with IFNγ may promote EC-triggered MΦ with CD40 MFI=40, CD209 MFI=60, CD163=10. DMSO treated EC promote MΦ with CD40=20, CD209 MFI=30, and CD163=100. […]

CN(C)C(=N)N=C(N)N [metformin]
position in the profile of pro-inflammatory (enhanced) and anti-inflammatory (dampening) compounds: dampening subset
